These results are taken from patent US20040037806A1, “Aldosterone blocker therapy to prevent or treat inflammation-related disorders” (Pharmacia Corporation, priority 2002, published 2004).

What all share (assay type): in vivo, rat
One test deals with COX-2. Briefly: Assay C: COX-2 mRNA, TaqMan. As to conditions: 7, 14, 30 days; aldosterone+salt alone or with eplerenone 100 mg/kg/day. The method, then:
(§1) The procedure of Assay B was expanded upon in a further study. […] Myocardial tissue from animals in each treatment group was examined after 7, 14, or 30 days of treatment.
(§2) Potassium chloride supplementation was added to the saline solution in order to prevent the potential hypokalemia associated with aldosterone excess.
(§3) Treatment At the time of the surgery, an Alzet 2002 osmotic minipump (Alza Corp., Palo Alto, Calif.) containing either vehicle (9% ethanol/87% propylene glycol/4% dH2O) or 1.0 mg/mL d-aldosterone (Sigma Chemical, St. Louis, Mo.) was inserted subcutaneously at the nape of the neck. Aldosterone was administered at a dose of 0.75 µg/hour. […]
(§4) The fluorogenic 5′-nuclease assay (TaqMan PCR) using Applied Biosystems' 7700 Sequence Detection System (Applied Biosystems, Foster City, Calif.) allowed for real time detection/quantitation of a specific gene by monitoring the increase in fluorescence of a gene-specific, dye-labeled oligonucleotide probe. […] When the probe was annealed to the target gene, fluorescence of 6FAM was prevented by the close proximity of TAMRA. The exonuclease activity of Taq polymerase released the dyes from the oligonucleotide probe by displacing the probe from the target sequence resulting in fluorescence excitation in direct proportion to the amount of target message present. […]

A short description of test [1]: Assay A: angiotensin II infusion model, heart histology (hematoxylin&eosin), vascular inflammation and myocardial injury. Conditions: Wistar rats, 1% NaCl, angiotensin II 25 ng/min sc, 4 weeks, 10/group; eplerenone 100 mpk; aldosterone replacement in adrenalectomized rats. The text has this: Assay A: In Vivo Angiotensin II Infusion Model
Male Wistar rats (n=50, 10/group; BW=200 g)
Sacrifice by exanguination after 4 weeks. Blood was be collected in dry tubes for determination of serum electrolytes and in EDTA-containing tubes for measurement of aldosterone and corticosterone levels
Hearts were stained with hematoxylin&eosin and have been analyzed for determination of morphologic abnormalities (i.e. necrosis, vascular injury).

Another test concerns osteopontin. Briefly: Assay C: Osteopontin mRNA, TaqMan. Conditions: 7, 14, 30 days; aldosterone+salt alone or with eplerenone 100 mg/kg/day. The method, then: as §1, §2, §3, §4
Test [2] concerns Monocyte Chemoattractant Protein-1 (MCP-1). Briefly: Assay C: MCP-1 mRNA, TaqMan. Conditions: 7, 14, 30 days; aldosterone+salt alone or with eplerenone 100 mg/kg/day. The method, then:
as §1, §2, §3, §4

Test [3] relates to Vascular Cell Adhesion Molecule-1 (VCAM-1). Briefly: Assay C: VCAM-1 mRNA, TaqMan. As to conditions: aldosterone+salt alone or with eplerenone 100 mg/kg/day; increase at day 30 did not reach statistical significance. The method, then:
as §1, §2, §3, §4

“Also recorded” adds a separate entry of the source.

In the case of `COC(=O)[C@@H]1CC2=CC(=O)CC[C@]2(C)[C@@]23O[C@@H]2C[C@@]2(C)[C@@H](CC[C@@]24CCC(=O)O4)[C@H]13` [eplerenone], the “COX-2 mRNA expression in myocardium” value in the test with COX-2 is “inhibition of early time-course expression of myocardial COX-2; also recorded: significantly reduced”. For the same compound, the “Vascular inflammatory lesions in the coronary arteries / heart” value in test [1] is “prevention by eplerenone (epoxymexrenone) of vascular inflammation; also recorded: one of the ten”. Moreover, the “Osteopontin mRNA expression in myocardium” value with osteopontin is reported as “significantly reduced; also recorded: inhibition of early time-course expression of myocardial osteopontin”. Besides, in test [2], the “MCP-1 mRNA expression in myocardium” value was “significantly reduced; also recorded: inhibition of early time-course expression of myocardial MCP-1”. The “VCAM-1 gene expression in myocardium” value in test [3] was “significantly reduced; also recorded: inhibition of early time-course expression of myocardial ICAM-1 and VCAM-1”.

With `C[C@]12CCC(=O)C=C1CC[C@@H]1[C@@H]2[C@@H](O)C[C@]2(C=O)[C@@H](C(=O)CO)CC[C@@H]12` [aldosterone], in the test on COX-2, the “COX-2 mRNA expression in myocardium” value is recorded as “significantly increased”. For the same compound, the “Vascular inflammatory lesions in the coronary arteries / heart” value in test [1] was “restored the severe coronary and myocardial inflammation and injury”. Moreover, the “Osteopontin mRNA expression in myocardium” value with osteopontin is reported as “markedly upregulated”. In addition, the “MCP-1 mRNA expression in myocardium” value in test [2] was “significantly increased”. In addition, the “VCAM-1 gene expression in myocardium” value in test [3] was “increased two-fold at day 30”.
